From PubChem BioAssay AID2060499 (Molecular Pharmacology Branch, DTP, NCI, 2025)

System: 777334-354-R2-J4-PDC tumor spheroids with HUVEC/MSC, viability
Assay: Anticancer human tumor 777334-354-R2-J4-PDC patient-derived pancreatic adenocarcinoma cell line growth inhibition [GQUAD]
Conditions: for IC50: curve of first compound; for viability, T/C: stronger effect = lower value; active = viability on the fitted dose curve at most 10% of control; inactive = the rest
Summary of the method: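 Viability of tumor cells grown as complex spheroids with endothelial and stromal cells, exposed to drug combinations. Top concentration at or near clinical Cmax (else 10 microM), diluted in half-log increments.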

[1] = second compound 0.0316 µM, first compound 0.0316 µM
[2] = second compound 0.0316 µM, first compound 0.1 µM
[3] = second compound 0.0316 µM, first compound 0.316 µM
[4] = second compound 0.0316 µM, first compound 1 µM
[5] = second compound 0.0316 µM, first compound 3.16 µM
[6] = second compound 0.0316 µM, first compound 10 µM
[7] = second compound 0.1 µM, first compound 0.0316 µM
[8] = second compound 0.1 µM, first compound 0.1 µM
[9] = second compound 0.1 µM, first compound 0.316 µM
[10] = second compound 0.1 µM, first compound 1 µM
[11] = second compound 0.1 µM, first compound 3.16 µM
[12] = second compound 0.1 µM, first compound 10 µM
[13] = second compound 0.316 µM, first compound 0.0316 µM
[14] = second compound 0.316 µM, first compound 0.1 µM
[15] = second compound 0.316 µM, first compound 0.316 µM
[16] = second compound 0.316 µM, first compound 1 µM
[17] = second compound 0.316 µM, first compound 3.16 µM
[18] = second compound 0.316 µM, first compound 10 µM
[19] = second compound 1 µM, first compound 0.0316 µM
[20] = second compound 1 µM, first compound 0.1 µM
[21] = second compound 1 µM, first compound 0.316 µM
[22] = second compound 1 µM, first compound 1 µM
[23] = second compound 1 µM, first compound 3.16 µM
[24] = second compound 1 µM, first compound 10 µM
[25] = second compound 3.16 µM, first compound 0.0316 µM
[26] = second compound 3.16 µM, first compound 0.1 µM
[27] = second compound 3.16 µM, first compound 0.316 µM
[28] = second compound 3.16 µM, first compound 1 µM
[29] = second compound 3.16 µM, first compound 3.16 µM
[30] = second compound 3.16 µM, first compound 10 µM
[31] = second compound 10 µM, first compound 0.0316 µM
[32] = second compound 10 µM, first compound 0.1 µM
[33] = second compound 10 µM, first compound 0.316 µM
[34] = second compound 10 µM, first compound 1 µM
[35] = second compound 10 µM, first compound 3.16 µM
[36] = second compound 10 µM, first compound 10 µM
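Note: spheroids exposed to compounds for 7 days before readout.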

CC(C)n1c(=O)n(C)c2cnc3cc(F)c(-c4ccc(OCCCN5CCCCC5)nc4)cc3c21 + Cc1cnc(CNC(=O)c2c(=O)c3ccc(N4CCCN(C)CC4)nc3n3c2sc2ccccc23)cn1
> 10000 nM: IC50 (second compound 0.0316 µM) | IC50 (second compound 0.1 µM) | IC50 (second compound 0.316 µM) | IC50 (second compound 1 µM) | IC50 (second compound 3.16 µM) | IC50 (second compound 10 µM)
inactive: viability, T/C [1] 85.8% | viability, T/C [2] 84% | viability, T/C [3] 93.9% | viability, T/C [4] 91% | viability, T/C [5] 103% | viability, T/C [6] 85.6% | viability, T/C [7] 78.3% | viability, T/C [8] 74.3% | viability, T/C [9] 89.1% | viability, T/C [10] 73.6% | viability, T/C [11] 74.2% | viability, T/C [12] 91.4% | viability, T/C [13] 71.4% | viability, T/C [14] 73.2% | viability, T/C [15] 73.8% | viability, T/C [16] 84.7% | viability, T/C [17] 76% | viability, T/C [18] 74.8% | viability, T/C [19] 73.3% | viability, T/C [20] 71.6% | viability, T/C [21] 66.9% | viability, T/C [22] 72.7% | viability, T/C [23] 85.7% | viability, T/C [24] 73.7% | viability, T/C [25] 57.6% | viability, T/C [26] 62.8% | viability, T/C [27] 66.5% | viability, T/C [28] 62.1% | viability, T/C [29] 78.6% | viability, T/C [30] 63.4% | viability, T/C [31] 57.4% | viability, T/C [32] 52.9% | viability, T/C [33] 61.6% | viability, T/C [34] 62% | viability, T/C [35] 69% | viability, T/C [36] 64.1%

O=C(NO)c1cnc(N2CCN(S(=O)(=O)c3ccc4ccccc4c3)CC2)nc1 + CN(C)c1ccc(Nc2c3ccc(NC(=O)CCN4CCCC4)cc3nc3cc(NC(=O)CCN4CCCC4)ccc23)cc1
852 nM: IC50 (second compound 1 µM)
926 nM: IC50 (second compound 0.0316 µM)
1290 nM: IC50 (second compound 0.1 µM)
inactive: viability, T/C [1] 103% | viability, T/C [2] 89.5% | viability, T/C [3] 79.4% | viability, T/C [4] 50.8% | viability, T/C [5] 11.1% | viability, T/C [7] 91.5% | viability, T/C [8] 90.6% | viability, T/C [9] 83.5% | viability, T/C [10] 62.3% | viability, T/C [13] 86.8% | viability, T/C [14] 94.7% | viability, T/C [15] 76.6% | viability, T/C [16] 54.8% | viability, T/C [17] 10.9% | viability, T/C [19] 84.3% | viability, T/C [20] 80.8% | viability, T/C [21] 62.5% | viability, T/C [22] 54.2% | viability, T/C [23] 12% | viability, T/C [25] 86.3% | viability, T/C [26] 72.1% | viability, T/C [27] 65.9% | viability, T/C [28] 54% | viability, T/C [29] 10.9% | viability, T/C [31] 66% | viability, T/C [32] 65.3% | viability, T/C [33] 63.1% | viability, T/C [34] 50.4% | viability, T/C [35] 11.1%
active: viability, T/C [6] 0.3% | viability, T/C [11] 8.7% | viability, T/C [12] 1.67% | viability, T/C [18] 2.03% | viability, T/C [24] 0.73% | viability, T/C [30] 0.96% | viability, T/C [36] 0.95%
954 nM: IC50 (second compound 3.16 µM)
1010 nM: IC50 (second compound 10 µM)
1070 nM: IC50 (second compound 0.316 µM)

Cn1ncnc1[C@H]1c2n[nH]c(=O)c3cc(F)cc(c23)N[C@@H]1c1ccc(F)cc1 + Cc1[nH]c2ccc(F)cc2c1-c1nc2c3cccnc3c3ncccc3c2[nH]1
inactive: viability, T/C (second compound 0.0316 µM, first compound 0.000999 µM) 105% | viability, T/C (second compound 0.0316 µM, first compound 0.00316 µM) 87.4% | viability, T/C (second compound 0.0316 µM, first compound 0.00999 µM) 92% | viability, T/C [1] 95.9% | viability, T/C (second compound 0.0316 µM, first compound 0.0999 µM) 81.6% | viability, T/C [3] 90.3% | viability, T/C (second compound 0.1 µM, first compound 0.000999 µM) 110% | viability, T/C (second compound 0.1 µM, first compound 0.00316 µM) 102% | viability, T/C (second compound 0.1 µM, first compound 0.00999 µM) 99.4% | viability, T/C [7] 83.9% | viability, T/C (second compound 0.1 µM, first compound 0.0999 µM) 94.5% | viability, T/C [9] 88.2% | viability, T/C (second compound 0.316 µM, first compound 0.000999 µM) 94.7% | viability, T/C (second compound 0.316 µM, first compound 0.00316 µM) 97.9% | viability, T/C (second compound 0.316 µM, first compound 0.00999 µM) 95.1% | viability, T/C [13] 85.5% | viability, T/C (second compound 0.316 µM, first compound 0.0999 µM) 84% | viability, T/C [15] 74.7% | viability, T/C (second compound 1 µM, first compound 0.000999 µM) 75.4% | viability, T/C (second compound 1 µM, first compound 0.00316 µM) 91.9% | viability, T/C (second compound 1 µM, first compound 0.00999 µM) 91.2% | viability, T/C [19] 81.9% | viability, T/C (second compound 1 µM, first compound 0.0999 µM) 82.1% | viability, T/C [21] 65.5% | viability, T/C (second compound 3.16 µM, first compound 0.000999 µM) 33.3% | viability, T/C (second compound 3.16 µM, first compound 0.00316 µM) 33.7% | viability, T/C (second compound 3.16 µM, first compound 0.00999 µM) 44.6% | viability, T/C [25] 22.8% | viability, T/C (second compound 3.16 µM, first compound 0.0999 µM) 28.6% | viability, T/C [27] 43.8% | viability, T/C (second compound 10 µM, first compound 0.000999 µM) 35.3% | viability, T/C (second compound 10 µM, first compound 0.00316 µM) 37.6% | viability, T/C (second compound 10 µM, first compound 0.00999 µM) 41.8% | viability, T/C [31] 28.7% | viability, T/C (second compound 10 µM, first compound 0.0999 µM) 37.1% | viability, T/C [33] 31.5%
> 316 nM: IC50 (second compound 0.0316 µM) | IC50 (second compound 0.1 µM) | IC50 (second compound 0.316 µM) | IC50 (second compound 1 µM)
< 0.999 nM: IC50 (second compound 3.16 µM) | IC50 (second compound 10 µM)
